In ChEMBL document CHEMBL1201862, “PubChem BioAssay data set” (2004):
Calls of active or inactive are those of the source. Square brackets hold non-standard residues; d marks the D form. Peptide text beside a SMILES is read from it. * marks the point of attachment. ξ: configuration not given here. Cbz = O=C(OCc1ccccc1)*; OBn = c1ccc(CO*)cc1; ξP = O=C(O)C1CCCN1

Key:
[1] = NIH-3T3 fibroblast cytotoxicity, dose response, cytotoxicity control, cell-based, fluorescence, Alamar Blue, secondary assay (AID 2327); format: functional;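 note: NIH-3T3 mouse fibroblasts cultured with fluconazole at 8 µg/mL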
[2] = fluconazole-exposed Candida albicans growth modulators – fluorescence, retest, confirmation (AID 2467); format: functional, cell-based
[3] = biological target: T1, Corticotropin-releasing factor receptor 2/Corticotropin-releasing factor-binding protein (Homo sapiens, UniProt P24387+Q13324); assay: Dose Response confirmation of uHTS hits for small molecule antagonists of the CRF-binding protein and CRF-R2 receptor complex.; format: functional; settings: read-out: IC50_Mean
T1 sequence (Q13324 whole entry): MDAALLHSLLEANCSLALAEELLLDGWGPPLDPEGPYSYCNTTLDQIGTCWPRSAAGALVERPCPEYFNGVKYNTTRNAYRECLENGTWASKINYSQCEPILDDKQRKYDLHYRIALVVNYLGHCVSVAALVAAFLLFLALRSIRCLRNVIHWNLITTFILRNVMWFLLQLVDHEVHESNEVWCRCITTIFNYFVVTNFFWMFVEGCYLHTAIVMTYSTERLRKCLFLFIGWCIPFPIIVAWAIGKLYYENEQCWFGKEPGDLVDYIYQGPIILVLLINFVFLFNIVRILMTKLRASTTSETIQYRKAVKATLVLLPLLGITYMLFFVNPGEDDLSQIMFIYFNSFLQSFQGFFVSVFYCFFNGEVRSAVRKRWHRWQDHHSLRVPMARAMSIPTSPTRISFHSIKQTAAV
T1 sequence (P24387 whole entry): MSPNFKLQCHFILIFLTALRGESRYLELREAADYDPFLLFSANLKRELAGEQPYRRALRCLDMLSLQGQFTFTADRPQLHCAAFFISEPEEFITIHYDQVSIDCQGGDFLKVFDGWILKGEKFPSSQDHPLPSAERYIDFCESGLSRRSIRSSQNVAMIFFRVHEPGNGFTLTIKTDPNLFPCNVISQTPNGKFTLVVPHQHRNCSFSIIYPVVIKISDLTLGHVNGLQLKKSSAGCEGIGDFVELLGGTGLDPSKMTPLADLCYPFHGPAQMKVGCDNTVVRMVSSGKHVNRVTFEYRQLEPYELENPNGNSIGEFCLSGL

[4] = biological target: T1, Corticotropin-releasing factor receptor 2/Corticotropin-releasing factor-binding protein; assay: activators of CRF receptor 2 with binding protein – uHTS hits, confirmation (AID 602473); format: functional; settings: read-out: EC50_Mean
[5] = biological target: Cytochrome P450 2D6 (Homo sapiens, UniProt P10635);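 note: CYP2D6 member of a cytochrome P450 panel assay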
Chain of Cytochrome P450 2D6 (P10635 whole entry): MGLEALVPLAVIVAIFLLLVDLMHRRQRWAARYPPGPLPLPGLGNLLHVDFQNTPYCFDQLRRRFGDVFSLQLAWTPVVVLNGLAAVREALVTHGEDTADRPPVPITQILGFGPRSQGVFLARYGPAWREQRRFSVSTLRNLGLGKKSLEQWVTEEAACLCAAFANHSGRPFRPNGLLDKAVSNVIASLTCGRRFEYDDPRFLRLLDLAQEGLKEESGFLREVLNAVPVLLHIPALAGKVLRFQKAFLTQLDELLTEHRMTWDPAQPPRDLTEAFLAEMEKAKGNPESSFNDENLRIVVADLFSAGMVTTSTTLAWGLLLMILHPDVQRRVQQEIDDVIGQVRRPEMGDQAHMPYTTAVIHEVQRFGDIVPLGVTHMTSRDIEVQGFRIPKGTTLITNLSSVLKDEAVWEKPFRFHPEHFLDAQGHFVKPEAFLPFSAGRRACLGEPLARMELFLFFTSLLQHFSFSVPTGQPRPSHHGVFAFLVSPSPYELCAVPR

[6] = biological target: Cytochrome P450 2C9 (Homo sapiens, UniProt P11712)
Chain of Cytochrome P450 2C9 (P11712 whole entry): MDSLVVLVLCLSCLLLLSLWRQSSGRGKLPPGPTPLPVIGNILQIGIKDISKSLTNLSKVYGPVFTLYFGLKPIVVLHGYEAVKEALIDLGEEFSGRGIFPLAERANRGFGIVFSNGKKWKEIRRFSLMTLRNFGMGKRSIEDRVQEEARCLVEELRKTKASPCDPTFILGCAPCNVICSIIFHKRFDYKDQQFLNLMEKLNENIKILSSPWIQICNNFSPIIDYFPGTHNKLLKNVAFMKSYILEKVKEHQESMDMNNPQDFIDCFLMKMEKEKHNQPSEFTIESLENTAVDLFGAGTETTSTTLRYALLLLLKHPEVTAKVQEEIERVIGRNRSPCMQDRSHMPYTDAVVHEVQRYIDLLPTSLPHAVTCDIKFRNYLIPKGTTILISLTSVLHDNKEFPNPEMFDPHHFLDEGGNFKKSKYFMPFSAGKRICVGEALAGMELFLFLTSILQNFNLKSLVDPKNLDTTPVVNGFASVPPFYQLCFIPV

[7] = biological target: Cytochrome P450 2C19 (Homo sapiens, UniProt P33261); assay: Cytochrome panel assay with activity outcomes. Panel member name: p450-cyp2c19 Compounds with AC50 equal or less than 10 uM are considered active; format: functional; settings: read-out: AC50
Chain of Cytochrome P450 2C19 (P33261 whole entry): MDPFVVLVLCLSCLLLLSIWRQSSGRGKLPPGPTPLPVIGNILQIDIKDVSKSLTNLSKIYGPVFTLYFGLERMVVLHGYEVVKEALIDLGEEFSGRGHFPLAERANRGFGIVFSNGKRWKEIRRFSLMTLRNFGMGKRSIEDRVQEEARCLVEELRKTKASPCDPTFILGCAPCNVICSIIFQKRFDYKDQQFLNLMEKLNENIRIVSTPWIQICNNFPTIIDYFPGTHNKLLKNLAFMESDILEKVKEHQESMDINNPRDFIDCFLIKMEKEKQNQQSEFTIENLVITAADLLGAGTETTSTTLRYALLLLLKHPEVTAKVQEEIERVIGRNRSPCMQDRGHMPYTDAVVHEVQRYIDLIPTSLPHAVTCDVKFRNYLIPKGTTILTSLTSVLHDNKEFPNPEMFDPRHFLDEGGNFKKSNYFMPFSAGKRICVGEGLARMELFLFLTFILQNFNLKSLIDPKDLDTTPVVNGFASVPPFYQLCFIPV

[8] = biological target: Cytochrome P450 3A4 (Homo sapiens, UniProt P08684);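 note: CYP3A4 tested as one member of a cytochrome P450 panel screen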
Chain of Cytochrome P450 3A4 (P08684 whole entry): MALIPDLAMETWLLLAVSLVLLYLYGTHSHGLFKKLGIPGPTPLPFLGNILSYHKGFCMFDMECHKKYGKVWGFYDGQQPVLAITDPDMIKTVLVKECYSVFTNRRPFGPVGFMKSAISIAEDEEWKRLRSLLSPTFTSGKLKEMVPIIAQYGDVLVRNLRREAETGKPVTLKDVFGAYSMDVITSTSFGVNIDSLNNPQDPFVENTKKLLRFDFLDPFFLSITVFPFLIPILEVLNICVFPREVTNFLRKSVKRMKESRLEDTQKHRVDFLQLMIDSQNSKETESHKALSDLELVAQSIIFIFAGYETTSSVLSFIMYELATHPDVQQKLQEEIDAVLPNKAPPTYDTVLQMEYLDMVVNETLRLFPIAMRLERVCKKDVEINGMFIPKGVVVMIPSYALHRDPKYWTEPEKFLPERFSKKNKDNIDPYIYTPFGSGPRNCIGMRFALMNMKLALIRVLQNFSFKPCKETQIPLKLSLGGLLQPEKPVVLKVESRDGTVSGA

[9] = biological target: T2, Cytochrome P450 1A2 (Homo sapiens, UniProt P05177);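 note: PubChem cytochrome P450 panel assay, CYP1A2 panel member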
T2 sequence (P05177 whole entry): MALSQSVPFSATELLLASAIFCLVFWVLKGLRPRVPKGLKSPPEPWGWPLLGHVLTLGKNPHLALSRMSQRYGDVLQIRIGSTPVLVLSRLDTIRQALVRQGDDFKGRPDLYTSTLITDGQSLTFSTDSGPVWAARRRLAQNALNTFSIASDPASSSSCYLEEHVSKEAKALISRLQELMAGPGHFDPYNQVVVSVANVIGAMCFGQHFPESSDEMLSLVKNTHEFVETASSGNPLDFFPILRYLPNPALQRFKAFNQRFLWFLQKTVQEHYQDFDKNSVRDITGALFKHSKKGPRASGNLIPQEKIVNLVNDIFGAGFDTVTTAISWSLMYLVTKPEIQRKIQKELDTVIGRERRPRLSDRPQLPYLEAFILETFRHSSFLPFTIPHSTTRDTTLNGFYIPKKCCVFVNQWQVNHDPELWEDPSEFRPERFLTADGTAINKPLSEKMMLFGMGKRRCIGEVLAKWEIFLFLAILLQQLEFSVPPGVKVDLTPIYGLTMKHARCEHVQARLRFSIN

[10] = Luminescence Cell-Based Dose Confirmation HTS to Identify Activators of 5'UTR Stem-Loop Driven Alpha-Synuclein mRNA Translation in H4 Neuroglioblastoma Cells. [Related pubchem assays: 1829 (Project Summary), 1814 (Primary HTS)]; format: functional
[11] = Luminescence Cell-Based Dose Response HTS to Identify Activators of Luciferase Translation or Activity in H4 […] Cells. [Related pubchem assays: 1829 (Project Summary), 1814 (Primary HTS)]; format: functional
[12] = test system: H4; assay: Luminescence Cell-Based Dose Response HTS to Identify Activators of 5'UTR Stem-Loop Driven Prion Protein mRNA Translation in H4 Neuroglioblastoma Cells. [Related pubchem assays: 1829 (Project Summary), 1814 (Primary HTS)]; format: functional; settings: Homo sapiens

With `NS(=O)(=O)c1cccc(NC(S)=NCc2ccc3c(c2)OCO3)c1` the EC50 [1] was > 160 µM (inactive) and the EC50 [2] was > 38 µM (not active).

In the case of `CC(C)(CNC(=O)c1ccc(Br)o1)CNC(=O)c1ccc(Br)o1`, the IC50 [3] is reported as > 47.1 µM (inactive) and the EC50 [4] is reported as > 53 µM (inactive).

In the case of `COc1ccccc1CNc1ncnc2ccc(-c3cccc(NS(C)(=O)=O)c3)cc12`, the AC50 [5] is reported as 20 µM (inconclusive) and the AC50 [6] is reported as 0.794 µM (inconclusive).

In the case of `c1ccc(N2CCCC3(CCNCC3)C2)cc1`, the AC50 [7] is reported as 15.8 µM (inconclusive) and the AC50 [8] is reported as 25.1 µM (inconclusive).

In the case of `O=C(Nc1ccccc1)N1CCCC2(CCN(C(=O)Oc3ccccc3)CC2)C1`, the AC50 [5] is reported as 20 µM (inconclusive) and the AC50 [9] is reported as 25.1 µM (inconclusive).

In the case of `Nc1ccc2nc(SCc3ccc([N+](=O)[O-])cc3)sc2c1`, the EC50 [1] is reported as > 150 µM (inactive) and the EC50 [2] is reported as > 38 µM (not active).

For `Cc1cc(S(=O)(=O)NC2CCCCC2)ccc1OCC(=O)NCC1CCCO1` (configuration not stated), the IC50 [3] was > 47.1 µM (inactive) and the EC50 [4] was > 53 µM (inactive).

In the case of `COc1cccc(OCc2nc3ccccc3c(=O)n2N)c1`, the EC50 [1] is reported as > 150 µM (inconclusive) and the EC50 [2] is reported as 10.1 µM (active).

For `COc1cc2c(cc1NC(=O)c1ccc3c(c1)OCO3)oc1ccccc12`, the EC50 [10] was 5.37 µM (active), the EC50 [11] was 43.1 µM (active) and the EC50 [12] was 85.3 µM (active).

In the case of `Cc1noc(C)c1C(=O)N1CCC2(CC1)CCN(C(c1ccccc1)c1ccccc1)CC2`, the AC50 [5] is reported as 25.1 µM (inconclusive).

In the case of `COc1ccc(Cc2c(N)nc(N)nc2N)cc1`, the AC50 [5] is reported as 17.8 µM (inconclusive).

In the case of `O=C(CNC(=O)OCc1ccccc1)NCC(=O)N1CCCC1C(=O)OCc1ccccc1` (stereo not drawn) (Cbz-Gly-Gly-[ξP]-OBn), the AC50 [7] is reported as 0.0355 µM (inconclusive) and the AC50 [8] is reported as 17.8 µM (inconclusive).

For `CCOC(=O)N1CCN(S(=O)(=O)c2ccc(C)c(C)c2C)CC1`, the IC50 [3] was > 47.1 µM (inactive) and the EC50 [4] was > 53 µM (inactive).

With `CCCCc1[nH]nc2c1/C(=N/O)CC(c1ccccc1)C2` (configuration not stated) the AC50 [5] was 14.1 µM (inconclusive).

With `O=C(Nc1nnc(S(=O)(=O)N2CCOCC2)s1)c1cccc(F)c1` the EC50 [10] was 17.8 µM (active), the EC50 [11] was 9.48 µM (active) and the EC50 [12] was 14.6 µM (active).

In the case of `O=C(CC1C(=O)NCCN1C(=O)Nc1ccccc1)Nc1ccc2c(c1)OCO2` (configuration not stated), the IC50 [3] is reported as > 47.1 µM (inactive) and the EC50 [4] is reported as > 53 µM (inactive).

With `CCOC(=O)c1ccc(NC(=O)c2cccc3c2C(=O)N(CC2CCCO2)C3)cc1` (configuration not stated) the IC50 [3] was > 47.1 µM (inactive) and the EC50 [4] was > 53 µM (inactive).

In the case of `O=C(OCn1nnc2ccccc2c1=O)c1cccnc1`, the AC50 [7] is reported as 25.1 µM (inconclusive), the AC50 [9] is reported as 17.8 µM (inconclusive) and the AC50 [6] is reported as 25.1 µM (inconclusive).

In the case of `Cc1ccc(NC(=O)NNC(=O)c2cc3ccccc3cc2O)c(C)c1`, the EC50 [1] is reported as > 150 µM (inconclusive).

In the case of `COc1ccc(C2C(C#N)=C(N)Nc3nc4ccccc4n32)cc1` (configuration not stated), the EC50 [10] is reported as 12.1 µM (active), the EC50 [11] is reported as 16.7 µM (active) and the EC50 [12] is reported as 32.9 µM (active).

In the case of `CCOC(=O)c1ccccc1OCc1cc(/C=N/n2cnnc2)ccc1OC`, the EC50 [1] is reported as > 150 µM (inactive), the EC50 [2] is reported as > 38 µM (not active) and the AC50 [9] is reported as 1.26 µM (inconclusive).

With `COCCCn1c(SCC(=O)Nc2ccccc2F)nnc1-c1ccoc1C` the IC50 [3] was > 47.1 µM (inactive) and the EC50 [4] was > 53 µM (inactive).

With `CCN1CCN(CC(=O)N2N=CCC2c2ccccc2)CC1` (configuration not stated) the IC50 [3] was > 47.1 µM (inactive) and the EC50 [4] was > 53 µM (inactive).
